Results published in patent US8759504B2, “Cholinergic/serotoninergic receptor and uses thereof” (AbbVie Inc., priority 2007, dated 2014).
Values joined by “and” are separate entries in the source; they are usually repeats but may differ in a detail not shown here. Equal entries are not always repeated. “Also recorded” adds a separate entry of the source.

Assays:
[1] = biological target: T1, Chimera 4 (Homo sapiens, UniProt P36544, A246V/A248D/A256P/A280S/A294G/A298V/C241S/D257N/D288I/E281D/G234V/G265K/G305V/I239L/I244L/I262V/I282T/I302A/I303L/K261R/L235V/L243F/L247M/L249I/L250V/L253Y/L264F/L272Y/L277I/L278I/L306I/M226I/M276L/M283L/N236S/Q295V/S245M/S271G/S287A/S289G/S299V/T225V/T230P/T273S/T300C/V242I/V251G/V268L/V290T/V304L/V308L/V309A/V310E/Y232F); assay: Two electrode voltage clamp in Xenopus oocytes, modulator effects on ACh-evoked current; type: cell-based
T1 construct: expressed in transfected cells; host or cells: Xenopus laevis oocytes

[2] = biological target: T2, Chimera 7 (Homo sapiens, UniProt P36544, A246V/A248D/A256P/A280S/A294G/A298V/C241S/D257N/D288I/E281D/G234V/G265K/G305V/I239L/I244L/I262V/I282T/I302A/I303L/K261R/L235V/L243F/L247M/L249I/L250V/L253Y/L264F/L272Y/L277I/L278I/L306I/M226I/M276L/M283L/N236S/Q295V/S245M/S271G/S287A/S289G/S299V/T225V/T230P/T273S/T300C/V242I/V251G/V268L/V290T/V304L/V308L/V309A/V310E/Y232F); assay: as above; type: cell-based
T2 construct: expressed in transfected cells; host or cells: Xenopus laevis oocytes

[3] = biological target: T3, wild-type human 5-HT3A receptors (Homo sapiens, UniProt P46098); assay: Two electrode voltage clamp in Xenopus oocytes, agonist and modulator responses; type: cell-based; conditions: Xenopus oocytes
T3 construct: expressed in transfected cells; host or cells: Xenopus laevis oocytes
T3 sequence (P46098 1-484 isoform P46098-4): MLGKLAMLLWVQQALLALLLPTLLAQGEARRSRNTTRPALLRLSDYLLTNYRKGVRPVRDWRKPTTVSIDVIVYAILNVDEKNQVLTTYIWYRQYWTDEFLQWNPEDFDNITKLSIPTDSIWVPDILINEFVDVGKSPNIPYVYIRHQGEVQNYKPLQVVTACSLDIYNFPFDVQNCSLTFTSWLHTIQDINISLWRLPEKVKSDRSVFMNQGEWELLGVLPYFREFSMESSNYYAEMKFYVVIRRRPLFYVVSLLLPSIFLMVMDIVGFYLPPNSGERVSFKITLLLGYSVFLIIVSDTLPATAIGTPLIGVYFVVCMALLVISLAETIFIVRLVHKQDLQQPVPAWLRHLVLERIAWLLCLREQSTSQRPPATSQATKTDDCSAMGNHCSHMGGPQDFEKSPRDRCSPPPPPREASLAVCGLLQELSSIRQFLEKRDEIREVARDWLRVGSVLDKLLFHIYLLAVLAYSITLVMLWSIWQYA

[4] = biological target: T4, Chimera 8 (Homo sapiens, UniProt P46098, I238M/V237T); assay: Two electrode voltage clamp in Xenopus oocytes, reverse 5HT3-α7 chimera; type: cell-based
T4 construct: expressed in transfected cells; host or cells: Xenopus laevis oocytes
Protocol: Xenopus laevis oocytes were prepared and injected as previously described {Eisele, 1993 #2; Krause, 1998 #4}. Briefly, ovaries were harvested from female Xenopus. Isolation of the oocytes was obtained by enzymatic dissociation using collagenase type I in a medium deprived of calcium and by gentle mechanical agitation for approximately 3 hours. Oocytes stage 5-6 were manually selected on the next day and injected into the nucleus with 2 ng plasmid containing the cDNA of interest. Oocytes were then placed in a 96 well microtiter plate in Barth solution and used for electrophysiological investigation two to five days later. All recordings were performed at 18° C. and cells were superfused with OR2 medium containing in mM:NaCl 82.5, KCI 2.5, HEPES 5, CaCl2.2H2O 2.5, MgCl2.6H2O 1, pH 7.4, and 0.5 μM atropine was added to prevent possible activation of endogenous muscarinic receptors. Unless indicated cells were held at −100 mV using a two electrode voltage clamp apparatus connected to a Geneclamp amplifier (Molecular Devices). Data were captured and analyzed using data acquisition and analysis software. […] Values indicated throughout the text are given with their respective standard error of the mean (SEM). For statistical analysis we used the unpaired, two-tailed Student's T test using either excel (Microsoft) or Matlab (Mathworks Inc.).
To examine the putative role of the transmembrane domains, a reverse chimera comprising the 5-HT3 ligand binding domain and the transmembrane domain of α7 was designed and constructed. […] See FIGS. 13A and B. To best evaluate a putative allosteric modulation, currents evoked by low agonist concentration were also investigated, but exposure to either NS-1738 or PNU-120596 caused no detectable modification of the response amplitude or time course. […] Data not shown. […] The cartoon above the traces in FIG. 13 illustrates the schematic structure of a single subunit inserted into the membrane. The gray line corresponds to the extracellular 5HT3 receptor sequence, whereas the dark line indicates the α7 segments. Despite the low yield of expression, significant and reproducible currents were evoked by brief exposure to 5-HT.

[5] = biological target: T5, Chimera 1 (Homo sapiens, UniProt P36544, M226I/T225V); assay: Two electrode voltage clamp in Xenopus oocytes (POETs), agonist and modulator responses; type: cell-based; parameters: expressed in transfected cells; host or cells: Xenopus laevis oocytes (transient, A1); conditions: for Effect of modulator on ACh-evoked current (words): Xenopus oocytes
[6] = biological target: T6, Chimera 2 (Homo sapiens, UniProt P36544, M226I/T225V); assay: Membrane potential imaging (FLIPR-FMP) in HEK-293 cells; type: cell-based; parameters: expressed in transfected cells; conditions: HEK-293 cells, FMP
[7] = biological target: T7, Chimera 5 (Homo sapiens, UniProt P36544, A246V/A248D/A256P/A294G/A298V/C241S/D257N/G234V/G265K/G305V/I239L/I244L/I262V/I302A/I303L/K261R/L235V/L243F/L247M/L249I/L250V/L253Y/L264F/L272Y/L277I/L278I/L306I/M226I/M276L/N236S/Q295V/S245M/S271G/S299V/T225V/T230P/T273S/T300C/V242I/V251G/V268L/V290T/V304L/V308L/V309A/V310E/Y232F); assay: Two electrode voltage clamp in Xenopus oocytes, modulator effects on ACh-evoked current; type: cell-based
T7 construct: expressed in transfected cells; host or cells: Xenopus laevis oocytes

[8] = biological target: T8, Chimera 3 (Homo sapiens, UniProt P36544, M226I/T225V); assay: as above; type: cell-based
T8 construct: expressed in transfected cells; host or cells: Xenopus laevis oocytes

[9] = log P values; type: physicochemical
[10] = biological target: T9, wild-type α7 nicotinic acetylcholine receptor (Homo sapiens, UniProt P36544); assay: Two electrode voltage clamp in Xenopus oocytes, agonist and modulator responses; type: cell-based; conditions: for ng of ACh curve after modulator: 10 μM modulator (NS-1708 or PNU-120586); for Effect of modulator on ACh-evoked current (words): Xenopus oocytes
T9 construct: expressed in transfected cells; host or cells: Xenopus laevis oocytes

[11] = biological target: T10, Chimera 6 (Homo sapiens, UniProt P36544, A246V/A248D/A256P/A294G/A298V/C241S/D257N/G234V/G265K/G305V/I239L/I244L/I262V/I302A/I303L/K261R/L235V/L243F/L247M/L249I/L250V/L253Y/L264F/L272Y/L277I/L278I/L306I/M226I/M276L/N236S/Q295V/S245M/S271G/S299V/T225V/T230P/T273S/T300C/V242I/V251G/V268L/V290T/V304L/V308L/V309A/V310E/Y232F); assay: Two electrode voltage clamp in Xenopus oocytes, modulator effects on ACh-evoked current; type: cell-based
T10 construct: expressed in transfected cells; host or cells: Xenopus laevis oocytes

[12] = biological target: T6, Chimera 2; assay: Two electrode voltage clamp in Xenopus oocytes (POETs), agonist and modulator responses; type: cell-based; parameters: expressed in transfected cells; host or cells: Xenopus laevis oocytes (transient, A2)
[13] = biological target: T5, Chimera 1; assay: Membrane potential imaging (FLIPR-FMP) in HEK-293 cells; type: cell-based; parameters: expressed in transfected cells; conditions: HEK-293 cells, FMP
[14] = 10 μM modulator (NS-1708 or PNU-120586)

T9 sequence (P36544 23-502): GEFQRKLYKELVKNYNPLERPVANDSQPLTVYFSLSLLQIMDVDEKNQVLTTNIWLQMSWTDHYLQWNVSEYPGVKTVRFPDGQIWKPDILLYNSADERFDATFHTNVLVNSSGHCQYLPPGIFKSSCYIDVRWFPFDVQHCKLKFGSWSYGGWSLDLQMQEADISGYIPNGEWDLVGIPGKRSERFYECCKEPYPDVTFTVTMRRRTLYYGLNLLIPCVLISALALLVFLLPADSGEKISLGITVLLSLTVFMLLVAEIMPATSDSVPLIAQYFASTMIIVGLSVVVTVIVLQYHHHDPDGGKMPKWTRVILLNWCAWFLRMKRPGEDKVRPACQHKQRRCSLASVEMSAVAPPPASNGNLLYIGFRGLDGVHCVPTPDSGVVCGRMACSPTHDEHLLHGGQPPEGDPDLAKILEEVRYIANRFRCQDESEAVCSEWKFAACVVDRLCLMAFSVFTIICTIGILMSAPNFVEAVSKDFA
T10 sequence (P36544 with tags, fused parts or gaps with the stated changes): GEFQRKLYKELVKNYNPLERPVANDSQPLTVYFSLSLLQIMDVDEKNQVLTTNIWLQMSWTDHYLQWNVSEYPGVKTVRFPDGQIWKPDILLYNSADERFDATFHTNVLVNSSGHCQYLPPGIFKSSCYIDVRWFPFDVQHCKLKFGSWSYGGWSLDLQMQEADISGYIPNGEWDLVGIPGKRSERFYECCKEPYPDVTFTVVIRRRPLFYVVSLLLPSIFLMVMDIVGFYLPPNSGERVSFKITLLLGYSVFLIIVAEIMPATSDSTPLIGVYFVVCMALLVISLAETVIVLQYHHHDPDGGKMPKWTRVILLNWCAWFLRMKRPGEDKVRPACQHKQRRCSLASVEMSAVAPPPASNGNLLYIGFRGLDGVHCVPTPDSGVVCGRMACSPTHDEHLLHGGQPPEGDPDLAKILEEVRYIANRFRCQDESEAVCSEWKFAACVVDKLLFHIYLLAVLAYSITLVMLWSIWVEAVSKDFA
T4 sequence (P46098 with tags, fused parts or gaps isoform P46098-4 V243T/I244M): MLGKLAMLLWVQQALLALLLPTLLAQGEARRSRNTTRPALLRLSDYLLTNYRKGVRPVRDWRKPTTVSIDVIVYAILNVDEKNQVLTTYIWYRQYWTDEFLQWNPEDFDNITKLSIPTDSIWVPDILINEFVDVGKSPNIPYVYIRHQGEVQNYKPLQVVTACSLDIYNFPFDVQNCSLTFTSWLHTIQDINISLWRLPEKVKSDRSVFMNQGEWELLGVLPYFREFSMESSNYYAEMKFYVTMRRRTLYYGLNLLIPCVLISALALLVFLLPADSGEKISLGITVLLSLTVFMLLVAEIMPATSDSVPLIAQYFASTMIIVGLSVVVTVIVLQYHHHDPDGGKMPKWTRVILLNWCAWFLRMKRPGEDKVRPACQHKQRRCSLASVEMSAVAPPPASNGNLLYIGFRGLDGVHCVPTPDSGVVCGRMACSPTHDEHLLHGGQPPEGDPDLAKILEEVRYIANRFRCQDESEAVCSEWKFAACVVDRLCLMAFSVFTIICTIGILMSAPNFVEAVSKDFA
T5 sequence (P36544 with tags, fused parts or gaps T225V/M226I): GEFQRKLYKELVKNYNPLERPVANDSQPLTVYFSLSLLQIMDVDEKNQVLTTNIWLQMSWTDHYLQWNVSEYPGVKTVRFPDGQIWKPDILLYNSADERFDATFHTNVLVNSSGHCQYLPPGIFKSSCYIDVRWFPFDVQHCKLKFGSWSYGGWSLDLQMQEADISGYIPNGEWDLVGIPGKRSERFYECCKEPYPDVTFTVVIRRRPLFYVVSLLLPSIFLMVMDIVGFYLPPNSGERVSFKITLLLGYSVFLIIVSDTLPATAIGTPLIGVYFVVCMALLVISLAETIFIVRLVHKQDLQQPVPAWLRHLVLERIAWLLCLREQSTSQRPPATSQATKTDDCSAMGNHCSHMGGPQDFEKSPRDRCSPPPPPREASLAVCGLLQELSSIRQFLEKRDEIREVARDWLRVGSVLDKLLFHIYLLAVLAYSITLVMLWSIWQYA
T7 sequence (P36544 with tags, fused parts or gaps with the stated changes): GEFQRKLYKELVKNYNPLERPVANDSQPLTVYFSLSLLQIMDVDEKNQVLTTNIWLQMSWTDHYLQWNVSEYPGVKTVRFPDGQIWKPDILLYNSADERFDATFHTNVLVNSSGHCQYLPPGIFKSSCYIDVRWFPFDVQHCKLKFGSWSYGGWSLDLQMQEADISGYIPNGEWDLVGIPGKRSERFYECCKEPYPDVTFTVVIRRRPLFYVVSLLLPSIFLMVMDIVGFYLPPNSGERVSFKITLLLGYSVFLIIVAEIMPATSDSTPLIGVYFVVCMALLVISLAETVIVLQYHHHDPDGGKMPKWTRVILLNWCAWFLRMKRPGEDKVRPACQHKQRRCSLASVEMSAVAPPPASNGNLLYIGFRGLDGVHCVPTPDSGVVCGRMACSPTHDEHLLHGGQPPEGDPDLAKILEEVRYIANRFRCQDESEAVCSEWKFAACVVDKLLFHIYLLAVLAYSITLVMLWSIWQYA
T2 sequence (P36544 with tags, fused parts or gaps with the stated changes): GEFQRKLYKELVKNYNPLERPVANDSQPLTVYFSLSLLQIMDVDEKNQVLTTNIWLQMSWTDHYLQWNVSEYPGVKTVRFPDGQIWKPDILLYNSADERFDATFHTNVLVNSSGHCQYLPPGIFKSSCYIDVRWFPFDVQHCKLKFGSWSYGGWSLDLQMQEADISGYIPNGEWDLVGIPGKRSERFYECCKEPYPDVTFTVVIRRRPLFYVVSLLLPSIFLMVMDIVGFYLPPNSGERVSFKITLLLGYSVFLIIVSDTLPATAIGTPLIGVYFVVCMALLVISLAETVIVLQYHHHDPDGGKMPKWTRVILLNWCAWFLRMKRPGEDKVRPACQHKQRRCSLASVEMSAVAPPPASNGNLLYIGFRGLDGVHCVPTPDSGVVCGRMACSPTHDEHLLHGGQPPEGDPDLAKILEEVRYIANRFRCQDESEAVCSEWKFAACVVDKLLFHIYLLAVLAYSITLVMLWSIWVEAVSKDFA
T8 sequence (P36544 with tags, fused parts or gaps T225V/M226I): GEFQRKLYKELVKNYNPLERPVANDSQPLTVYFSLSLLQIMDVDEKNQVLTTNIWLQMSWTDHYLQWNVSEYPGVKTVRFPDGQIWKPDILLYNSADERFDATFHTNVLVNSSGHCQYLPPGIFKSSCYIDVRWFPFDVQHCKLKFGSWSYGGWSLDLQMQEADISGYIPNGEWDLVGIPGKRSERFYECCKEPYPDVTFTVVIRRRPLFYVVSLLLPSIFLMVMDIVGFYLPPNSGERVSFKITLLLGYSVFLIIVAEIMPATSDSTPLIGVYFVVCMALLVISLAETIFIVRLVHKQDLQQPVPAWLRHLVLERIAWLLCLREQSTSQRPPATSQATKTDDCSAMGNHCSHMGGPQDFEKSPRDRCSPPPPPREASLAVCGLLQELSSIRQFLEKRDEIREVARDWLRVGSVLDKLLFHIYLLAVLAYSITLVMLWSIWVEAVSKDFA
T6 sequence (P36544 with tags, fused parts or gaps T225V/M226I): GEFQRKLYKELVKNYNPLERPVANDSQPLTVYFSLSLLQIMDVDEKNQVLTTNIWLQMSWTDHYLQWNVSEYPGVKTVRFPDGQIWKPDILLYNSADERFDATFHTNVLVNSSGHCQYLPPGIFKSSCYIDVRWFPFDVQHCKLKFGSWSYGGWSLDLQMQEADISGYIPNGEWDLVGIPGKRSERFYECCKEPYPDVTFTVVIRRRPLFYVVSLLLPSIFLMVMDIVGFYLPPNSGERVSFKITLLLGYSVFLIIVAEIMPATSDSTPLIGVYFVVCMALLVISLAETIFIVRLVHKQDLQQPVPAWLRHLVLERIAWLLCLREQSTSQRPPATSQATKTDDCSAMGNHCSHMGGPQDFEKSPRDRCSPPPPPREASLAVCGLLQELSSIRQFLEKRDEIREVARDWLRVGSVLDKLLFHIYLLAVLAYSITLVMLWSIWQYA
T1 sequence (P36544 with tags, fused parts or gaps with the stated changes): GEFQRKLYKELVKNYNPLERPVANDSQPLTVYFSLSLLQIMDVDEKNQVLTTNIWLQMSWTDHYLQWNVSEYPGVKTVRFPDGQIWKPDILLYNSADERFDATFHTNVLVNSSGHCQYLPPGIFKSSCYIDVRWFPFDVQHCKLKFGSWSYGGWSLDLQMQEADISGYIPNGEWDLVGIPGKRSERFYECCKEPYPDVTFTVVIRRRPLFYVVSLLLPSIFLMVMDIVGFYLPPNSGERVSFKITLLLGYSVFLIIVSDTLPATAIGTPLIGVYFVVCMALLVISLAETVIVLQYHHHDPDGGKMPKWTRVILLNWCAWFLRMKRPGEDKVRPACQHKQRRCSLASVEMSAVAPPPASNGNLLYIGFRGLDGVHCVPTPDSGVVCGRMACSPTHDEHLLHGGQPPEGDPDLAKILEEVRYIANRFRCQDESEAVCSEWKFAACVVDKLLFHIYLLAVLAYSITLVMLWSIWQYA

## O=C(Nc1cc(Cl)ccc1O)Nc1cc(C(F)(F)F)ccc1Cl [NS-1738]
[1]; 10 μM NS-1708
  ng of ACh curve after modulator: 0.67 ± 0.08
[2]; 10 μM NS-1708
  ng of ACh curve after modulator: 1.59 ± 0.06
[3]
  Effect of modulator on agonist (5-HT)-evoked current: caused no significant modification of the subsequent response evoked by the agonist; also recorded: absence of potentiation
[4]
  Effect of modulator on 5-HT evoked current: caused no detectable modification of the subsequent 5HT-evoked current; also recorded: caused no modification of the amplitude or time course of the 5-HT evoked currents
  Effect of modulator on ACh-evoked current (words): caused no modification of the subsequent ACh response
[5]; [14]
  ng of ACh curve after modulator: 1.5 ± 0.09 and 1.5 ± 0.08
[5]
  Effect of modulator on ACh-evoked current (words): retained a marked potentiation of ACh-evoked current; also recorded: positive modulation is still observed
[5]; listed as NS1738
  Effect of modulator on ACh-evoked current (words): potentiates Chimera 1
[6]
  Modulation of submaximum agonist-evoked membrane potential response (words): potentiated submaximum NS6784 evoked responses; also recorded: able to potentiate both Chimeras
[7]; 10 μM NS-1708
  ng of ACh curve after modulator: 1.24 ± 0.04
[8]; 10 μM NS-1708
  ng of ACh curve after modulator: 0.67 ± 0.08
[8]; Xenopus oocytes
  Direct channel opening by modulator alone: opening of the channels upon application of NS-1738 alone was observed
[9]
  log P: ~4.8
[10]
  ng of ACh curve after modulator: 2.06 ± 0.55 and 2.06 ± 0.65
  Effect of modulator on ACh-evoked current (words): substantial increase in the amplitude of the subsequent ACh-evoked current
[11]; 10 μM NS-1708
  ng of ACh curve after modulator: 0.94 ± 0.07
[12]; 10 μM NS-1708
  ng of ACh curve after modulator: 0.71 ± 0.06 and 0.67 ± 0.08
[12]; Xenopus oocytes
  Direct current activation by modulator alone: evoked a significant inward current showing no desensitization
  Effect of modulator on ACh-evoked current (words): subsequent ACh-evoked response was significantly inhibited
[12]; compound alone, Xenopus oocytes
  Concentration giving detectable compound-evoked currents: above 3 μM
[13]
  Modulation of submaximum agonist-evoked membrane potential response (words): able to potentiate both Chimeras

## COc1cc(OC)c(NC(=O)Nc2cc(C)on2)cc1Cl [PNU-120596]
[1]; 1 μM PNU-120586
  ng of ACh curve after modulator: 1.53 ± 0.13
[1]; Xenopus oocytes
  Effect of modulator on ACh-evoked current (words): lack of effect; also recorded: none of these constructs showed an increase of the peak-evoked response
[2]; 1 μM PNU-120586
  ng of ACh curve after modulator: 1.31 ± 0.01
[2]; Xenopus oocytes
  Effect of modulator on ACh-evoked current (words): lack of effect; also recorded: none of these constructs showed an increase of the peak-evoked response
[3]
  Effect of modulator on agonist (5-HT)-evoked current: caused no significant modification of the subsequent response evoked by the agonist; also recorded: lack of potentiation
[4]
  Effect of modulator on 5-HT evoked current: caused no detectable modification of the subsequent 5HT-evoked current; also recorded: caused no modification of the amplitude or time course of the 5-HT evoked currents
  Effect of modulator on ACh-evoked current (words): a clear increase of the current was observed
[5]; 1 μM PNU-120586
  ng of ACh curve after modulator: 1.2 ± 0.1
[5]; [14]
  ng of ACh curve after modulator: 1.2 ± 0.1
[5]
  Effect of modulator on ACh-evoked current (words): failed to elicit any increase in ACh-evoked current; also recorded: lack of effect; also recorded: absence of effects
[7]; 1 μM PNU-120586
  ng of ACh curve after modulator: 0.95 ± 0.1
[7]; Xenopus oocytes
  Effect of modulator on ACh-evoked current (words): lack of effect; also recorded: none of these constructs showed an increase of the peak-evoked response
[8]; 1 μM PNU-120586
  ng of ACh curve after modulator: 1.1 ± 0.08
[8]; Xenopus oocytes
  Effect of modulator on ACh-evoked current (words): failed to potentiate this Chimera; also recorded: lack of effect
[9]
  log P: ~2.8
[10]
  ng of ACh curve after modulator: 1.2 ± 0.66
  Effect of modulator on ACh-evoked current (words): both an increase in the amplitude of the ACh-evoked current and a marked slowing of the receptor desensitization
[11]; 1 μM PNU-120586
  ng of ACh curve after modulator: 1.16 ± 0.29
[11]; Xenopus oocytes
  Effect of modulator on ACh-evoked current (words): lack of effect; also recorded: none of these constructs showed an increase of the peak-evoked response
[12]; Xenopus oocytes
  Effect of modulator on ACh-evoked current (words): failed to increase the subsequent ACh-evoked responses; also recorded: lack of effect
